The record followed here is patent US20260242353A1, “HETEROARYL DERIVATIVES AS DDRs INHIBITORS” (CHIESI FARMACEUTICI S.P.A., priority 2022, published 2026).

By Ki is commonly meant a measure of affinity in units of concentration, obtained from inhibition or displacement.

The target in experiment [1] is T1, DDR1 (Homo sapiens, UniProt Q08345).
T1 construct: purchased Carna Biosciences
In words: LanthaScreen Europium Kinase Binding assay, DDR1. The conditions noted are these: 5 nM DDR1, 20 nM Kinase Tracer 178, 1 h at rt; Ki from IC50 by Cheng-Prusoff; read-out: Ki DDR1. In outline: (§1)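 Compounds were incubated 1 h at rt with 5 nM DDR1 plus 20 nM Kinase Tracer 178, or 5 nM DDR2 plus 10 nM tracer, and 2 nM Eu anti-GST antibody in HEPES pH 7.5 buffer. Read-out was the TR-FRET 665/615 nm ratio. IC50 came from a 4-parameter fit and was converted to Ki by Cheng-Prusoff.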

Experiment [2] concerns the target T2, DDR2 (Homo sapiens, UniProt Q16832).
T2 construct: purchased Life Technologies
T2 sequence (Q16832 22-855): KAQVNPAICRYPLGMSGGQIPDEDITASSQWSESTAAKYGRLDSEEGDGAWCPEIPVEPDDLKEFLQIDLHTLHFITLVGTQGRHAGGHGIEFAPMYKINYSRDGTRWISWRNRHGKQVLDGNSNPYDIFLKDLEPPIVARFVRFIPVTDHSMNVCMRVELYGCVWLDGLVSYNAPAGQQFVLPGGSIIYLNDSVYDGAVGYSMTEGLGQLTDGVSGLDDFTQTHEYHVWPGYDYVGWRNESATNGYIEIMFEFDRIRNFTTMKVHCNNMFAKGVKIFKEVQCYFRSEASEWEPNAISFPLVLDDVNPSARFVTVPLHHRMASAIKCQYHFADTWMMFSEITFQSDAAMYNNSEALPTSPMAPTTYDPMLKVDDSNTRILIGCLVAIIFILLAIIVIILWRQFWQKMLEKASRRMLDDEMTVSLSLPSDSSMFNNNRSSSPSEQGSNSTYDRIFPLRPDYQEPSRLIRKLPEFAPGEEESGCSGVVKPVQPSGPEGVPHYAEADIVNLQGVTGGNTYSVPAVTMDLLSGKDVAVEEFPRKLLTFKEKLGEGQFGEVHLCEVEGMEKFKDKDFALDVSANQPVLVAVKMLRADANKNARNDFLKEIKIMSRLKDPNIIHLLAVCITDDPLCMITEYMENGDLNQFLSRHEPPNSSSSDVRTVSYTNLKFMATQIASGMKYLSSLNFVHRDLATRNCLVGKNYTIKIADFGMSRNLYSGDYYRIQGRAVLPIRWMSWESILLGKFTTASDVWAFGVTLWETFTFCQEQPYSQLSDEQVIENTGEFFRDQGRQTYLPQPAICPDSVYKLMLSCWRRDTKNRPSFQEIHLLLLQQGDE
Put plainly: LanthaScreen Europium Kinase Binding assay, DDR2. The conditions noted are these: 5 nM DDR2, 10 nM Kinase Tracer 178, 1 h at rt; Ki from IC50 by Cheng-Prusoff; read-out: Ki DDR2. The method, boiled down:
as §1

T1 sequence (Q08345 19-913): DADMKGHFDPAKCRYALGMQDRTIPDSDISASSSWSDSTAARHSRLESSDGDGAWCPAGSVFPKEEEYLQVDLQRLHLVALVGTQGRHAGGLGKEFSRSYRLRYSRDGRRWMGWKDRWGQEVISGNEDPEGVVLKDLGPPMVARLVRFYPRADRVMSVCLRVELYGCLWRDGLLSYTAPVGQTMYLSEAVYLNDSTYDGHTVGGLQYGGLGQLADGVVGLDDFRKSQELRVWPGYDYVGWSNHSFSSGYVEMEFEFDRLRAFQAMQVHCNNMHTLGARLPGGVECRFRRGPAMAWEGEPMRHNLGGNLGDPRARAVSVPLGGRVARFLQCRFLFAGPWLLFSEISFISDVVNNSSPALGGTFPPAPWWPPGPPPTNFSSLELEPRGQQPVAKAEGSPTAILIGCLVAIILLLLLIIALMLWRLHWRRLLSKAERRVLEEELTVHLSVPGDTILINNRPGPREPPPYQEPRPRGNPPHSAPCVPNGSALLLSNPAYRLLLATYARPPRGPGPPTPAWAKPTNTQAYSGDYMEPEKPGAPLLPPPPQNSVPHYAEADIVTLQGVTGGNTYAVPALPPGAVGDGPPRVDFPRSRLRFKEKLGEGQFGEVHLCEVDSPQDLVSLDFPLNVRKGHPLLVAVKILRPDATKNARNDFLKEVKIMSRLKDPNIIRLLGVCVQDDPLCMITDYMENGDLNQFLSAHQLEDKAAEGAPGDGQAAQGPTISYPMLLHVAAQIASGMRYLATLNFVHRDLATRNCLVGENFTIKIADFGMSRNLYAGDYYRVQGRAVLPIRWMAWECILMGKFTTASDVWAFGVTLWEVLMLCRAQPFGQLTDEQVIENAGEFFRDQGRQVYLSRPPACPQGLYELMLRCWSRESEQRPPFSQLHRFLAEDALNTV

As to `Cc1ccc(C(=O)Nc2cc(C(C)(C)C(F)(F)F)on2)cc1[C@@H]1CCN(c2cnccn2)C1` [Example 58, (S)-4-methyl-3-(1-(pyrazin-2-yl)pyrrolidin-3-yl)-N-(5-(1,1,1-trifluoro-2-methylpropan-2-yl)isoxazol-3-yl)benzamide], the Ki in experiment [1] and in experiment [2] was under 5 nM each time.
With `Cc1ccc(C(=O)Nc2cc(C3CC3)nn2C)cc1[C@@H]1CCN(c2cncc(-c3cnn(C)c3)c2)C1` [Example 59, (S)-N-(3-cyclopropyl-1-methyl-1H-pyrazol-5-yl)-4-methyl-3-(1-(5-(1-methyl-1H-pyrazol-4-yl)pyridin-3-yl)pyrrolidin-3-yl)benzamide], the Ki in experiment [1] was under 5 nM; in experiment [2] it was 5 to 25 nM.
As for `Cc1ccc(C(=O)Nc2cc(C(C)(C)C(F)(F)F)on2)cc1[C@H]1CCN(c2cncc(-c3cnn(C)c3)c2)C1` [Example 60, (R)-4-methyl-3-(1-(5-(1-methyl-1H-pyrazol-4-yl)pyridin-3-yl)pyrrolidin-3-yl)-N-(5-(1,1,1-trifluoro-2-methylpropan-2-yl)isoxazol-3-yl)benzamide], the Ki in experiment [1] and in experiment [2] was under 5 nM in each case.
With `Cc1ccc(C(=O)Nc2cncc(C(F)(F)F)c2)cc1[C@@H]1CCN(c2ncnc3cc(C(=O)N4CCOCC4)sc23)C1` [Example 61, (S)-4-methyl-3-(1-(6-(morpholine-4-carbonyl)thieno[3,2-d]pyrimidin-4-yl)pyrrolidin-3-yl)-N-(5-(trifluoromethyl)pyridin-3-yl)benzamide], the results for the Ki in experiment [1] and in experiment [2] were under 5 nM and 5 to 25 nM, respectively.
Consider `Cc1ccc(C(=O)Nc2cncc(C(F)(F)F)c2)cc1[C@@H]1CCN(c2ccnc(C(N)=O)c2)C1` [Example 63, (S)-4-(3-(2-methyl-5-((5-(trifluoromethyl)pyridin-3-yl)carbamoyl)phenyl)pyrrolidin-1-yl)picolinamide], for which the Ki in experiment [1] and in experiment [2] was under 5 nM throughout.
As to `COc1ccc(C(=O)Nc2cncc(C(F)(F)F)c2)cc1C1CCN(c2ccnc(C(N)=O)c2)C1` (stereo not shown) [Example 64, 4-(3-(2-methoxy-5-((5-(trifluoromethyl)pyridin-3-yl)carbamoyl)phenyl)pyrrolidin-1-yl)picolinamide], the Ki in experiment [1] was under 5 nM; in experiment [2] it was 5 to 25 nM.
Take `Cc1ccc(C(=O)Nc2cncc(C(F)(F)F)c2)cc1[C@@H]1CCN(c2cnn(C)c2C(N)=O)C1` [Example 65, (S)-1-methyl-4-(3-(2-methyl-5-((5-(trifluoromethyl)pyridin-3-yl)carbamoyl)phenyl)pyrrolidin-1-yl)-1H-pyrazole-5-carboxamide]: the Ki is under 5 nM in experiment [1] and 5 to 25 nM in experiment [2].
Turning to `Cc1ccc(C(=O)Nc2cncc(C(F)(F)F)c2)cc1[C@@H]1CCN(c2cccc(C(N)=O)c2)C1` [Example 66, (S)-3-(1-(3-carbamoylphenyl)pyrrolidin-3-yl)-4-methyl-N-(5-(trifluoromethyl)pyridin-3-yl)benzamide], the Ki in experiment [1] lay in the range of 5 to 25 nM; in experiment [2], 25 to 100 nM.
Consider `Cc1ccc(C(=O)Nc2cc(C(F)F)ccn2)cc1[C@@H]1CCN(c2cncnc2)C1` [Example 67, (S)-N-(4-(difluoromethyl)pyridin-2-yl)-4-methyl-3-(1-(pyrimidin-5-yl)pyrrolidin-3-yl)benzamide], for which the Ki in experiment [1] and in experiment [2] was under 5 nM each time.
On to `Cc1ccc(C(=O)Nc2cc(C(F)(F)F)nn2C)cc1[C@@H]1CCN(c2cncnc2)C1` [Example 68, (S)-4-methyl-N-(1-methyl-3-(trifluoromethyl)-1H-pyrazol-5-yl)-3-(1-(pyrimidin-5-yl)pyrrolidin-3-yl)benzamide], for which the Ki in experiment [1] and in experiment [2] was 5 to 25 nM each time.
Turning to `CCc1cc(NC(=O)c2ccc(C)c([C@@H]3CCN(c4cncnc4)C3)c2)no1` [Example 69, (S)-N-(5-ethylisoxazol-3-yl)-4-methyl-3-(1-(pyrimidin-5-yl)pyrrolidin-3-yl)benzamide], the inhibitory constant (Ki) in experiment [1] is under 5 nM; in experiment [2], 5 to 25 nM.
With `Cc1ccc(C(=O)Nc2cc(C3CC3)nn2C)cc1[C@@H]1CCN(c2cncnc2)C1` [Example 70, (S)-N-(3-cyclopropyl-1-methyl-1H-pyrazol-5-yl)-4-methyl-3-(1-(pyrimidin-5-yl)pyrrolidin-3-yl)benzamide], the Ki in experiment [1] was 5 to 25 nM; in experiment [2] it was 25 to 100 nM.
Take `Cc1ccc(C(=O)Nc2cncc(C(F)(F)F)c2)cc1[C@@H]1CCN(c2cnc3ccccn23)C1` [Example 71, (S)-3-(1-(imidazo[1,2-a]pyridin-3-yl)pyrrolidin-3-yl)-4-methyl-N-(5-(trifluoromethyl)pyridin-3-yl)benzamide]: the Ki in experiment [1] and in experiment [2] was under 5 nM throughout.
Take `Cc1ccc(C(=O)Nc2cncc(C(F)(F)F)c2)cc1[C@@H]1CCN(c2cnc3ccc(N4CCN(C)CC4)cn23)C1` [Example 72, (S)-4-methyl-3-(1-(6-(4-methylpiperazin-1-yl)imidazo[1,2-a]pyridin-3-yl)pyrrolidin-3-yl)-N-(5-(trifluoromethyl)pyridin-3-yl)benzamide]: the Ki in experiment [1] is under 5 nM; in experiment [2], 5 to 25 nM.
The corresponding values for `Cc1ccc(C(=O)Nc2cncc(C(F)(F)F)c2)cc1[C@@H]1CCN(c2cnc3ccc(N4CCN(CC#N)CC4)cn23)C1` [Example 73, (S)-3-(1-(6-(4-(cyanomethyl)piperazin-1-yl)imidazo[1,2-a]pyridin-3-yl)pyrrolidin-3-yl)-4-methyl-N-(5-(trifluoromethyl)pyridin-3-yl)benzamide] are under 5 nM and 5 to 25 nM.
As to `Cc1ccc(C(=O)Nc2cncc(C(F)(F)F)c2)cc1[C@@H]1CCN(c2cncc(OCCN3CCN(C)CC3)c2)C1` [Example 74, (S)-4-methyl-3-(1-(5-(2-(4-methylpiperazin-1-yl)ethoxy)pyridin-3-yl)pyrrolidin-3-yl)-N-(5-(trifluoromethyl)pyridin-3-yl)benzamide], the figures for the Ki in experiment [1] and in experiment [2] were under 5 nM and 5 to 25 nM, respectively.
The corresponding values for `Cc1ccc(C(=O)Nc2cncc(C(F)(F)F)c2)cc1[C@@H]1CCN(c2cnccc2C#N)C1` [Example 75, (S)-3-(1-(4-cyanopyridin-3-yl)pyrrolidin-3-yl)-4-methyl-N-(5-(trifluoromethyl)pyridin-3-yl)benzamide] are under 5 nM and under 5 nM.
Regarding `COc1ccncc1N1CC[C@@H](c2cc(C(=O)Nc3cncc(C(F)(F)F)c3)ccc2C)C1` [Example 76, (S)-3-(1-(4-methoxypyridin-3-yl)pyrrolidin-3-yl)-4-methyl-N-(5-(trifluoromethyl)pyridin-3-yl)benzamide], the Ki in experiment [1] and in experiment [2] was under 5 nM throughout.
In the case of `Cc1ccc(C(=O)Nc2cncc(C(F)(F)F)c2)cc1[C@@H]1CCN(c2cnc3ccc(CN4CCOCC4)cn23)C1` [Example 77, (S)-4-methyl-3-(1-(6-(morpholinomethyl)imidazo [1,2-a]pyridin-3-yl)pyrrolidin-3-yl)-N-(5-(trifluoromethyl)pyridin-3-yl)benzamide], the Ki is under 5 nM in experiment [1] and 5 to 25 nM in experiment [2].
The corresponding values for `Cc1ccc(C(=O)Nc2cncc(C(F)(F)F)c2)cc1[C@@H]1CCN(c2cnc3ccc(C#N)cn23)C1` [Example 78, (S)-3-(1-(6-cyanoimidazo[1,2-a]pyridin-3-yl)pyrrolidin-3-yl)-4-methyl-N-(5-(trifluoromethyl)pyridin-3-yl)benzamide] are under 5 nM and under 5 nM.
In the case of `COCCOc1cncc(N2CC[C@@H](c3cc(C(=O)Nc4cncc(C(F)(F)F)c4)ccc3C)C2)c1` [Example 79, (S)-3-(1-(5-(2-methoxyethoxy)pyridin-3-yl)pyrrolidin-3-yl)-4-methyl-N-(5-(trifluoromethyl)pyridin-3-yl)benzamide], the inhibition constant Ki was under 5 nM in experiment [1] and 5 to 25 nM in experiment [2].
Regarding `Cc1ccc(C(=O)Nc2cncc(C(F)(F)F)c2)cc1[C@@H]1CCN(c2cnc3ccc(N4CCN(C)CC4)nn23)C1` [Example 80, (S)-4-methyl-3-(1-(6-(4-methylpiperazin-1-yl)imidazo[1,2-b]pyridazin-3-yl)pyrrolidin-3-yl)-N-(5-(trifluoromethyl)pyridin-3-yl)benzamide], the inhibitory constant (Ki) in experiment [1] and in experiment [2] was 5 to 25 nM each time.
Consider `Cc1ccc(C(=O)Nc2cncc(C(F)(F)F)c2)cc1[C@@H]1CCN(c2cncc(OC3CCN(C)CC3)c2)C1` [Example 81, (S)-4-methyl-3-(1-(5-((1-methylpiperidin-4-yl)oxy)pyridin-3-yl)pyrrolidin-3-yl)-N-(5-(trifluoromethyl)pyridin-3-yl)benzamide], for which the Ki in experiment [1] was under 5 nM; in experiment [2], 5 to 25 nM.
